{
  "source": "patent US6426349B1",
  "about": "“Substituted condensation products of N-benzyl-3-indenylacetamides with heterocyclic aldehydes for neoplasia” (Cell Pathway and the University of Arizona, priority 1997, dated 2002)",
  "key": {"[1]": {"test_system": "SW-480 colon adenocarcinoma cells", "assay": "Apoptosis by DNA fragmentation (Cell Death Detection ELISA plus)", "assay_type": "cell-based, human", "settings": "for DNA Fragmentation FS (100 μM): fold stimulation FS=ODmax/ODveh; for DNA Fragmentation FS (100 μM) / EC50: SW-480 cells, 48 hrs; for Apoptosis Level (Mean OD Value ± SD): DNA fragmentation, SW-480", "protocol": "Apoptosis was also measured based on the amount of fragmented DNA contained in cell lysates. Briefly, SW-480 colon adenocarcinoma cells were plated in 96-well microtitre plates (“MTP”) at a density of 10 K cells/well in 180 μl and were incubated for 24 hrs. Cells were then treated with 20 μl aliquots of appropriately diluted compound, and allowed to incubate for an additional 48 hrs.\nAfter the incubation, samples were prepared according to the following steps. The MTP was centrifuged (15 min., 1000 rpm) and the supernatant was carefully removed by fast inversion of the MTP. The cell pellets in each well were resuspended in 200 μl lysis buffer and incubated for 45 min. at room temperature to lyse the cells. The lysates were then centrifuged (15 min., 1000 rpm) and 20 μl aliquots of the supernatant (=cytoplasmic fraction) were transferred into the streptavidin coated MTP for analysis. Care was taken not to shake the lysed pellets in the MTP (=cell nucleii containing high molecular weight, unfragmented DNA). Samples were analyzed immediately, because storage at 4C or −20C reduces the ELISA-signals.\nSamples were then processed according to a DNA fragmentation assay protocol, and dose-response curves were generated based on optical density readings. Quantification of DNA was done by a commercially available photometric enzyme-immunoassay manufactured by Mannheim-Boehringer under the name “Cell Death Detection ELISA^plus”. The assay is based on a quantitative sandwich-enzyme-immunoassay-principle using mouse monoclonal antibodies directed against DNA and histones, respectively. This allows the specific determination of mono and oligonucleosomes in the cytoplasmatic fraction of cell lysates. In brief, the assay procedure is as follows. The sample (cell-lysate, serum, culture-supematant etc.) is placed into a streptavidin-coated MTP. Subsequently, a mixture of anti-histone-biotin and anti-DNA-POD is followed by incubation for 2 hours. During the incubation period, the anti-histone antibody binds to the histone-component of the nucleosomes and simultaneously fixes the immunocomplex to the streptavidin-coated MTP via its biotinylation. Additionally, the anti-DNA-POD antibody reacts with the DNA component of the nucleosomes. After removal of unbound antibodies by a washing step, the amount of nucleosomes is quantified by the POD retained in the immunocomplex. POD is determined photometrically with ABTS® (2,2′-Azino-di[3-ethylbenzthiazolin-sulfonat])* as substrate.\nFold stimulation (FS=ODmax/ODveh), an indicator of apoptotic response, was determined for each compound tested. EC50 values were determined either specifically by data analysis software, or by estimates based on the effective concentration range of each compound (ECR=min. effective dose-min. dose to peak effect). These FS and EC50 values for the tested compounds are listed above in Table 4.\nIn addition, using the DNA fragmentation test above, a dose response for the compound of Example 1 was obtained."}, "[2]": {"test_system": "human colon carcinoma cell line, SW-480", "assay": "Sulforhodamine B (SRB) tumor cell growth inhibition assay", "assay_type": "cell-based", "settings": "SW480, 144 h, SW-480 cell line, six days continuous exposure", "protocol": "The compound of Example 1 was assayed for its growth inhibitory activity on the human colon carcinoma cell line, SW-480 obtained from ATCC (Rockville, Md.), to ascertain the degree of growth inhibition. Growth inhibition of this cell line is indicative of a benefit on precancerous lesions and neoplasms. The cell line and growth assay employed for such experiments are well characterized, and are used to evaluate the anti-neoplastic properties of NSAIDs. The assay is used by the United States National Cancer Institute in its screening program for new anti-cancer drugs.\nDrug stock solutions were made in 100% DMSO and were then diluted with RPMI media for cell culture testing. All drug solutions were prepared fresh on the day of testing. The cultured cells were obtained at passage #99 and grown in RPMI media supplemented with 5% fetal calf serum, and 2 mM glutamine, 100 U/ml penicillin, […] streptomycin, and 0.25 μg/ml amphotericin. The cultures were maintained in a humidified atmosphere of 95% air and 5% CO2 at 37° C. […]\nTumor cell growth inhibition was assessed using the Sulforhodamine B (SRB) protein binding assay. […] The dye was then solubilized, and the optical density of the resulting solution was determined on a 96-well plate reader. […]\nFor each experiment, an IC50 value was determined and used for comparative purposes. […]"}, "[3]": {"molecular_target": "T1, purified cyclooxygenase Type I (Ovis aries, UniProt P05979)", "T1 construct": "The COX was purified from ram seminal vesicles; from tissue; host or cells: ram seminal vesicles", "T1 sequence (P05979 25-600)": "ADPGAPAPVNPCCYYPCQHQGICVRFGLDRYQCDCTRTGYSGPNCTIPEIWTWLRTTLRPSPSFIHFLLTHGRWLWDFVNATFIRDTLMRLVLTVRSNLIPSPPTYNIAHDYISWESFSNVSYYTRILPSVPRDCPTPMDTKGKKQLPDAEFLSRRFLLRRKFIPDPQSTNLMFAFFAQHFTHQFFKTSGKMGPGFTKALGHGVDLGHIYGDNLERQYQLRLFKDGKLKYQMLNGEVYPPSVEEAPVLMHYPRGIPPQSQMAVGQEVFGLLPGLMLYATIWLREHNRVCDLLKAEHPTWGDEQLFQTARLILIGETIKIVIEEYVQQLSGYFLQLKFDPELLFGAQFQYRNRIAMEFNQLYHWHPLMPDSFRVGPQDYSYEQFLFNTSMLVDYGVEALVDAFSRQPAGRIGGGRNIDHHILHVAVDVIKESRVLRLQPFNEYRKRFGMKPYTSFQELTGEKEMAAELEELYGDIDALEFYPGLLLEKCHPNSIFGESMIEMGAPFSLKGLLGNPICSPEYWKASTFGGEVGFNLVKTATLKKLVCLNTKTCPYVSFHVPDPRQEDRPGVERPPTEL", "assay": "Cyclooxygenase (COX) inhibition, purified enzyme", "assay_type": "biochemical", "settings": "purified COX from ram seminal vesicles", "protocol": "COX catalyzes the formation of prostaglandins and thromboxane by the oxidative metabolism of arachidonic acid. The compound of Example 1 of this invention, as well as a positive control, (sulindac sulfide) were evaluated to determine whether they inhibited purified cyclooxygenase Type I (see Table 3 below).\nThe compounds of this invention were evaluated for inhibitory effects on purified COX. The COX was purified from ram seminal vesicles, as described by Boopathy, R. and Balasubramanian, J., 239:371-377, 1988. COX activity was assayed as described by Evans, A. T., et al., “Actions of Cannabis Constituents on Enzymes Of Arachidonate Metabolism Anti-Inflammatory Potential,” Biochem. Pharmacol., 36:2035-2037, 1987. Briefly, purified COX was incubated with arachidonic acid (100 μM) for 2.0 min at 37° C. in the presence or absence of test compounds. The assay was terminated by the addition of TCA, and COX activity was determined by absorbance at 530 nm."}, "[4]": {"test_system": "HT-29 human colon carcinoma cells", "assay": "Apoptosis by morphology (acridine orange/ethidium bromide fluorescent microscopy)", "assay_type": "cell-based", "settings": "HT-29 cells", "protocol": "Apoptosis was measured using an assay of cell death based on morphological characteristics of apoptotic cells (i.e., condensed chromatin). Drug preparation and cell culture conditions were the same as for the SRB assay described above, except that HT-29 human colon carcinoma cells were used. Confluent cultures were established in 12.5 cm^2 flasks by plating 0.5×10^6 cells/flask. The cultures were assayed for apoptosis by fluorescent microscopy following labeling with acridine orange and ethidium bromide. Floating and attached cells were collected by trypsinization and washed three times in PBS. One ml aliquots were centrifuged (3 g). The pellet was resuspended in 25 μl media and 1 μl of a dye mixture containing 100 μg/ml acridine orange and 100 μg/ml ethidium bromide prepared in PBS and mixed gently. Ten μl of the mixture was placed on a microscope slide and covered with a 22 mm^2 coverslip, was examined with 40x dry objectives under epillumination by filter combination.\nAn observer blinded in regard to the identity of the samples scored at least 100 cells per sample. Apoptotic cells were identified by nuclear condensation of chromatin stained by the acridine orange or ethidium bromide."}},
  "note": "Counter-ions that a name gives are not always drawn.",
  "data": [
    {"compound": "CC1=C(CC(=O)NCc2ccccc2)c2cc(F)ccc2/C1=C\\c1ccnc2ccccc12", "note": "[Example 4, (Z)-5-Fluoro-2-Methyl-(4-Quinolinylidene)-3-(N-Benzyl)-Indenylacetamide]", "values": [
      {"measurement": "DNA Fragmentation FS (100 μM)", "setting": "[1]", "result": 3.9}
    ]},
    {"compound": "CC1=C(CC(=O)NCc2ccccc2)c2cc(F)ccc2/C1=C\\c1ccncc1", "note": "[Example 38, (Z)-5-Fluoro-2-Methyl-(4-Pyridylidene)-3-(N-Benzyl) Indenylacetamide Hydrochloride]", "values": [
      {"measurement": "EC50", "setting": "[1]", "result": 15, "unit": "µM"}
    ]},
    {"compound": "CC1=C(CC(=O)NCc2ccccc2)c2cc(F)ccc2/C1=C\\c1ccncc1", "note": "[Example 1, (Z)-5-Fluoro-2-Methyl-(4-Pyridinylidene)-3-(N-Benzyl)-Indenylacetamide]", "values": [
      {"measurement": "IC50", "setting": "[2]", "result": 0.724, "unit": "µM"},
      {"measurement": "inhibition at 100 µM", "setting": "[3]", "result": "< 25", "unit": "%"},
      {"measurement": "Morphology % Apoptotic Cells (1 μM)", "setting": "[4]", "result": 88, "unit": "%"},
      {"measurement": "DNA Fragmentation FS (100 μM)", "setting": "[1]", "result": 4.2},
      {"measurement": "EC50", "setting": "[1]; Homo sapiens, SW480", "result": 29, "unit": "µM"},
      {"measurement": "Apoptosis Level (Mean OD Value ± SD)", "setting": "[1]; dose 0.5 μM", "result": "0.186 ± 0.008"},
      {"measurement": "Apoptosis Level (Mean OD Value ± SD)", "setting": "[1]; dose 1.0 μM", "result": "0.207 ± 0.061"},
      {"measurement": "Apoptosis Level (Mean OD Value ± SD)", "setting": "[1]; dose 5.0 μM", "result": "0.208 ± 0.073"},
      {"measurement": "Apoptosis Level (Mean OD Value ± SD)", "setting": "[1]; dose 10 μM", "result": "0.296 ± 0.050"},
      {"measurement": "Apoptosis Level (Mean OD Value ± SD)", "setting": "[1]; dose 50 μM", "result": "0.500 ± 0.048"},
      {"measurement": "Apoptosis Level (Mean OD Value ± SD)", "setting": "[1]; dose 100 μM", "result": "0.633 ± 0.053"},
      {"measurement": "Apoptosis Level (Mean OD Value ± SD)", "setting": "[1]; dose 500 μM", "result": "0.659 ± 0.012"}
    ]},
    {"compound": "CC1=C(CC(=O)NCc2ccccc2)c2cc(F)ccc2/C1=C\\c1cccnc1", "note": "[Example 2, (Z)-5-Fluoro-2-Methyl-(3-Pyridinylidene)-3-(N-Benzyl)-Indenylacetamide]", "values": [
      {"measurement": "DNA Fragmentation FS (100 μM)", "setting": "[1]", "result": 5.4}
    ]},
    {"compound": "CC1=C(CC(=O)NCc2ccccc2)c2cc(F)ccc2/C1=C\\c1ccccn1", "note": "[Example 3, (Z)-5-Fluoro-2-Methyl-(2-Pyridinylidene)-3-(N-Benzyl)-Indenylacetamide]", "values": [
      {"measurement": "DNA Fragmentation FS (100 μM)", "setting": "[1]", "result": 8.5}
    ]}
  ]
}
